“And” between values parts separate entries of the source, which are not always exact repeats. Equal entries are not always repeated.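 Assay format: 96-well plates, 48-hour exposure. Abbreviation: GI50, concentration required for 50% inhibition of growth. TGI marks complete inhibition of growth.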
Columns and labels:
Test in all cases: growth of human tumour cells (NCI), 48 h
DLD-1 colon = tested on: DLD-1 colon
DMS 114 small cell lung = tested on: DMS 114 small cell lung
HS 578T breast = tested on: HS 578T breast
KM20L2 colon = tested on: KM20L2 colon
M19-MEL melanoma = tested on: M19-MEL melanoma
MDA-N = tested on: MDA-N
RXF-631 renal = tested on: RXF-631 renal
SNB-78 CNS = tested on: SNB-78 CNS
XF 498 CNS = tested on: XF 498 CNS

With `CCC1(O)C(=O)OCc2c1cc1n(c2=O)Cc2cc3ccc(C=O)cc3nc2-1` (configuration not stated) the TGI (DLD-1 colon) was greater than 100 µM, the TGI (DMS 114 small cell lung) was 20.5 µM and the GI50 (HS 578T breast) was 27 µM. For the same molecule, the TGI (HS 578T breast) was 50 µM and > 100 µM, the TGI (KM20L2 colon) was greater than 50.3 µM and the TGI (M19-MEL melanoma) was 19.8 µM. The GI50 (MDA-N) was 3.9 µM, the TGI (MDA-N) was 23.7 µM and 36.4 µM and the TGI (RXF-631 renal) was 31.7 µM. The TGI (SNB-78 CNS) was 98.2 µM and the TGI (XF 498 CNS) was 19.2 µM.
Molecule `CN/N=C(/CCN1CCCC1)CC(c1ccccc1)c1c(O)c2ccccc2oc1=O` (configuration not stated) has a TGI (DLD-1 colon) greater than 100 µM, a TGI (DMS 114 small cell lung) greater than 100 µM and a TGI (HS 578T breast) greater than 100 µM. The TGI (KM20L2 colon) was greater than 100 µM, the TGI (M19-MEL melanoma) was greater than 100 µM and the TGI (MDA-N) was greater than 100 µM. It also gave a TGI (RXF-631 renal) greater than 100 µM, a TGI (SNB-78 CNS) greater than 100 µM and a TGI (XF 498 CNS) greater than 100 µM.
`COC(=O)c1cccc2cccc(C(=O)Nc3ccc(C)cc3C)c12` was tested, and the TGI (DLD-1 colon) was greater than 100 µM, the TGI (DMS 114 small cell lung) was greater than 100 µM and the TGI (KM20L2 colon) was greater than 100 µM. For the same molecule, the TGI (M19-MEL melanoma) was greater than 100 µM, the TGI (RXF-631 renal) was greater than 100 µM and the TGI (SNB-78 CNS) was greater than 100 µM. For the same molecule, the TGI (XF 498 CNS) was greater than 100 µM.
With `CC(=O)OC[C@]12CC[C@H]3[C@@H](C[C@H]4O[C@]45[C@@H](O)C=CC(=O)[C@]35C)[C@@H]1CC[C@@H]2[C@H](C)[C@H]1CC(C)=C(C)C(=O)O1` the GI50 (DLD-1 colon) was 0.273 µM and 0.129 µM, the TGI (DLD-1 colon) was 0.649 µM and 0.31 µM and the GI50 (DMS 114 small cell lung) was 0.324 µM and 0.357 µM. The TGI (DMS 114 small cell lung) was 0.823 µM and 1.12 µM, the GI50 (KM20L2 colon) was 0.512 µM and 0.407 µM and the TGI (KM20L2 colon) was 0.829 µM and 1.44 µM. For the same molecule, the GI50 (M19-MEL melanoma) was 0.598 µM and 0.515 µM, the TGI (M19-MEL melanoma) was 2.32 µM and the GI50 (RXF-631 renal) was 0.679 µM and 0.987 µM. For the same molecule, the TGI (RXF-631 renal) was 2.74 µM, the GI50 (SNB-78 CNS) was 0.453 µM and 0.321 µM and the TGI (SNB-78 CNS) was 1.84 µM. The GI50 (XF 498 CNS) was 0.422 µM and 0.234 µM and the TGI (XF 498 CNS) was 0.799 µM and 0.581 µM.
`COc1cc(OC(=O)c2c(O)cc(O)c(O)c2C)cc(C)c1C(=O)Oc1cc(C)c(C(=O)O)c(O)c1` was tested, and the TGI (DLD-1 colon) was greater than 100 µM, the TGI (DMS 114 small cell lung) was greater than 100 µM and the TGI (KM20L2 colon) was greater than 100 µM. For the same molecule, the TGI (M19-MEL melanoma) was greater than 100 µM, the TGI (RXF-631 renal) was greater than 100 µM and the TGI (SNB-78 CNS) was greater than 100 µM. The TGI (XF 498 CNS) was greater than 100 µM.
In the case of `C[N+](C)(C)CC1CCCC(C[N+](C)(C)C)C1=O` (configuration not stated), the TGI (DLD-1 colon) is reported as 0.386 µM, the TGI (DMS 114 small cell lung) is reported as 3.49 µM and the TGI (HS 578T breast) is reported as 33.6 µM. The TGI (KM20L2 colon) was 5.5 µM, the TGI (M19-MEL melanoma) was 2.33 µM and the TGI (MDA-N) was 9.44 µM. It also gave a TGI (RXF-631 renal) of 47.4 µM, a TGI (SNB-78 CNS) of 5.88 µM and a TGI (XF 498 CNS) of 0.898 µM.
